Test results as given in publication PMC5651048, “Differential Resistance Mechanisms to Glyphosate Result in Fitness Cost for Lolium perenne and L. multiflorum” (Frontiers in Plant Science, 2017).

Test system: T1, EPSPS (5-enolpyruvlshikimate-3-phosphate synthase), Golf biotypes
T1 construct: native enzyme in leaf extract, not purified to homogeneity
Experiment: EPSPS activity in leaf extract, phosphate release (EnzChek Phosphate Assay)
Type: biochemical, Lolium perenne
Conditions: S-Golf biotype; 0-1000 μM glyphosate; log-logistic fit; unit from Methods (table footnote with unit not in the material); read-out: EPSPS activity^c / I50
Description: EPSPS activity in leaf extract, phosphate release (EnzChek Phosphate Assay) on EPSPS (5-enolpyruvlshikimate-3-phosphate synthase), Golf biotypes

With `O=C(O)CNCP(=O)(O)O` [glyphosate, N-phosphonomethyl glycine] the IC50 was 3.2 ± 0.3 µM.
